pIC50: −log10 of the molar value.
Experiments:
JMJD2C = JMJD2C (Homo sapiens (Human), UniProt Q9H3R0); assay: JMJD2C in vitro enzyme inhibition assay (TR-FRET); type: biochemical
FBXL10 = FBXL10 (Homo sapiens (Human), UniProt Q8NHM5); assay: FBXL10 in vitro enzyme inhibition assay (AlphaScreen); type: biochemical
Protocol: Reaction product was determined quantitatively by AlphaScreen detection after the addition of detection reagents anti-H3K36me1 antibody, AlphaScreen® Streptavidin-coated Donor beads, and AlphaScreen® Protein A Acceptor beads in 50 mM HEPES, pH7.3, 10 mM NaCl, 0.005% Brij35, 5 mM EDTA, 2 mg/ml BSA to final 10 μg/ml beads.
Plates were incubated at room temperature for 40 minutes, followed by addition of 3 μl of 50 μg/ml AlphaScreen® Streptavidin-coated Donor beads and AlphaScreen® Protein A Acceptor beads in 50 mM HEPES, pH7.3, 10 mM NaCl, 0.005% Brij35, 5 mM EDTA, 2 mg/ml BSA. Plates were read by EnVisionMultilabel Reader in AlphaScreen mode after a minimum of 2 hour or up to overnight incubation at room temperature. The AlphaScreen signal for each well was used to determine inhibition constant (IC50).

Jarid1A = Jarid1A (Homo sapiens (Human), UniProt P29375); assay: Jarid1A in vitro enzyme inhibition assay (TR-FRET); type: biochemical
Excerpt: The enzymatic assay of Jarid1A activity is based upon Time Resolved-Fluorescence Resonance Energy Transfer (TR-FRET) detection.

Jarid1B = Jarid1B (Homo sapiens (Human), UniProt Q9UGL1); assay: Jarid1B in vitro enzyme inhibition assay (TR-FRET); type: biochemical
Protocol: (§1) This assay determines the ability of a test compound to inhibit Jarid1A, Jarid1B, JMJD2C, and JMJD2A demethylase activity.
The ability of test compounds to inhibit the activity of Jarid1B was determined in 384-well plate format under the following reaction conditions: 0.8 nM Jarid1B, 300 nM H3K4me3-biotin labeled peptide (Anaspec cat #64357), 2 μM alpha-ketoglutaric acid in assay buffer of 50 mM HEPES, pH7.3, 0.005% Brij35, 0.5 mM TCEP, 0.2 mg/ml BSA, 50 μM sodium L-ascorbate, and 2 μM ammonium iron(II) sulfate. Reaction product was determined quantitatively by TR-FRET after the addition of detection reagent Phycolink Streptavidin-allophycocyanin (Prozyme) and Europium-anti-mono- or di-methylated histone H3 lysine 4 (H3K4me1-2) antibody (PerkinElmer) in the presence of 5 mM EDTA in LANCE detection buffer (PerkinElmer) at a final concentration of 25 nM and 1 nM, respectively.
The assay reaction was initiated by the following: 2 μl of the mixture of 900 nM H3K4me3-biotin labeled peptide and 6 μM alpha-ketoglutaric acid with 2 μl of 11-point serial diluted inhibitor in 3% DMSO was added to each well of the plate, followed by the addition of 2 μl of 2.4 nM Jarid1B to initiate the reaction. The reaction mixture was incubated at room temperature for 30 minutes, and terminated by the addition of 6 μl of 5 mM EDTA in LANCE detection buffer containing 50 nM Phycolink Streptavidin-allophycocyanin and 2 nM Europium-anti-H3K4me1-2 antibody. Plates were read by EnVisionMultilabel Reader in TR-FRET mode (excitation at 320 nm, emission at 615 nm and 665 nm) after 1 hour incubation at room temperature. A ratio was calculated (665/615) for each well and fitted to determine inhibition constant (IC50).

JMJD2A = JMJD2A (Homo sapiens (Human), UniProt O75164); assay: JMJD2A in vitro enzyme inhibition assay (TR-FRET); settings: read-out: JMJD2A IC50
Chain of JMJD2A (O75164 1-350): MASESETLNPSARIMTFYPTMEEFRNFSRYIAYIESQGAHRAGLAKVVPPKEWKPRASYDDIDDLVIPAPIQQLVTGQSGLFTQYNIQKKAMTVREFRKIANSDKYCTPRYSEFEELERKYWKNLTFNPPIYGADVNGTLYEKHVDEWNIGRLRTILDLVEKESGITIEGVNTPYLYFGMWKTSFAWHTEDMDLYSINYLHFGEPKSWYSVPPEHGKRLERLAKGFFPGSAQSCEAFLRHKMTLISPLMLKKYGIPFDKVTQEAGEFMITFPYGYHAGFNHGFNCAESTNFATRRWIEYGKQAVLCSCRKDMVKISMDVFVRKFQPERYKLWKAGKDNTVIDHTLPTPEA
Protocol: as §1
Reaction product was determined quantitatively by TR-FRET after the addition of detection reagent Phycolink Streptavidin-allophycocyanin (Prozyme) and Europium-anti-di-methylated histone H3 lysine 9 (H3K9me2) antibody (PerkinElmer) in the presence of 5 mM EDTA in LANCE detection buffer (PerkinElmer) at a final concentration of 50 nM and 1 nM, respectively.
The assay reaction was initiated by the following: 2 μl of the mixture of 900 nM H3K9me3-biotin labeled peptide and 6 μM alpha-ketoglutaric acid with 2 μl of 11-point serial diluted inhibitor in 3% DMSO were added to each well of plate, followed by the addition of 2 μl of 6 nM JMJD2A to initiate the reaction. The reaction mixture was incubated at room temperature for 30 minutes, and terminated by the addition of 6 μl of 5 mM EDTA in LANCE detection buffer containing 100 nM Phycolink Streptavidin-allophycocyanin and 2 nM Europium-anti-H3K9me2 antibody.

Chain of FBXL10 (Q8NHM5 1-650): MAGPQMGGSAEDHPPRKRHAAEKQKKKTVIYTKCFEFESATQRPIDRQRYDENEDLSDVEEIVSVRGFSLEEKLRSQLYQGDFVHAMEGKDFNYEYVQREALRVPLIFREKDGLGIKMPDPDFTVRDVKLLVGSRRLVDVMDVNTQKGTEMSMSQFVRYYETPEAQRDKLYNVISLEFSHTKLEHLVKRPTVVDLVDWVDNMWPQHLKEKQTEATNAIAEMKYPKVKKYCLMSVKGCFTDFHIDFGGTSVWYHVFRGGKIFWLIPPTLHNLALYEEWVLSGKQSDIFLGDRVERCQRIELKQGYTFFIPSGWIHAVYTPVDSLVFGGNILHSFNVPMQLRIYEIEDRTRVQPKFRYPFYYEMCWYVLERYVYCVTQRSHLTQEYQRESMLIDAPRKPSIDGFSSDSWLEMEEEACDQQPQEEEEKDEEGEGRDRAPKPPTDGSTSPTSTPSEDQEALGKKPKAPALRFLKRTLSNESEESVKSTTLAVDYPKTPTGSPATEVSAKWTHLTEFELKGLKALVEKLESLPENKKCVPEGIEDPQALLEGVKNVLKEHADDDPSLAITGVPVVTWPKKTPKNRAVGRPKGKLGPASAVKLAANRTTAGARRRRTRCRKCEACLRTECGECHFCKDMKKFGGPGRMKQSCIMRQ
Chain of Jarid1A (P29375 1-1090): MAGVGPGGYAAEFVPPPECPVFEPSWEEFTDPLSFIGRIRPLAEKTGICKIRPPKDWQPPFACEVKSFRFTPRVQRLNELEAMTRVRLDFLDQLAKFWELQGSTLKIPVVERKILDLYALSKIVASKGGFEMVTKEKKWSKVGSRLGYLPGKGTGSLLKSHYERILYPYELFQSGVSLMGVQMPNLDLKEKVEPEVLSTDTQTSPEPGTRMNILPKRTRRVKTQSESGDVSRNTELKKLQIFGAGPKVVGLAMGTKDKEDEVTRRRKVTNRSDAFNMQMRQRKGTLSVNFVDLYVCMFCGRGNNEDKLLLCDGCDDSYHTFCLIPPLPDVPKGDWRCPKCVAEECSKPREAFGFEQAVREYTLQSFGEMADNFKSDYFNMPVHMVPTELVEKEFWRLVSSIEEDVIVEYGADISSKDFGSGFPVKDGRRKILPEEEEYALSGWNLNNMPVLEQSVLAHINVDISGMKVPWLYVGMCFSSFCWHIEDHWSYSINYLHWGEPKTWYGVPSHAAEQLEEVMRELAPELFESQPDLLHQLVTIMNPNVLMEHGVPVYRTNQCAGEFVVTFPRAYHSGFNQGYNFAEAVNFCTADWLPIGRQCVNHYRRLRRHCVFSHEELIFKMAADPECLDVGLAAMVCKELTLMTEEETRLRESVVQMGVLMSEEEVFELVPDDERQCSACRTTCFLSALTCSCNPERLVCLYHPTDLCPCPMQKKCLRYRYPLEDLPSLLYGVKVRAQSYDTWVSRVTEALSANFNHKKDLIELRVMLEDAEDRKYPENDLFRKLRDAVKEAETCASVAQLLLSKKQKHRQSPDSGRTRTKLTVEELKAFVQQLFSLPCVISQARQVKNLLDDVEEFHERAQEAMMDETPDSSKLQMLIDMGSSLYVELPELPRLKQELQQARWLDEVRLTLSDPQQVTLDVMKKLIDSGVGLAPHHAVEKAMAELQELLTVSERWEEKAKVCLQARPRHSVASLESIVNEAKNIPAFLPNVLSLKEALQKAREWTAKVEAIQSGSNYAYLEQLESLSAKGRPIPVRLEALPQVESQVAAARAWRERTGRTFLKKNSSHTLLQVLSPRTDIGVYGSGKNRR
Chain of Jarid1B (Q9UGL1 2-751): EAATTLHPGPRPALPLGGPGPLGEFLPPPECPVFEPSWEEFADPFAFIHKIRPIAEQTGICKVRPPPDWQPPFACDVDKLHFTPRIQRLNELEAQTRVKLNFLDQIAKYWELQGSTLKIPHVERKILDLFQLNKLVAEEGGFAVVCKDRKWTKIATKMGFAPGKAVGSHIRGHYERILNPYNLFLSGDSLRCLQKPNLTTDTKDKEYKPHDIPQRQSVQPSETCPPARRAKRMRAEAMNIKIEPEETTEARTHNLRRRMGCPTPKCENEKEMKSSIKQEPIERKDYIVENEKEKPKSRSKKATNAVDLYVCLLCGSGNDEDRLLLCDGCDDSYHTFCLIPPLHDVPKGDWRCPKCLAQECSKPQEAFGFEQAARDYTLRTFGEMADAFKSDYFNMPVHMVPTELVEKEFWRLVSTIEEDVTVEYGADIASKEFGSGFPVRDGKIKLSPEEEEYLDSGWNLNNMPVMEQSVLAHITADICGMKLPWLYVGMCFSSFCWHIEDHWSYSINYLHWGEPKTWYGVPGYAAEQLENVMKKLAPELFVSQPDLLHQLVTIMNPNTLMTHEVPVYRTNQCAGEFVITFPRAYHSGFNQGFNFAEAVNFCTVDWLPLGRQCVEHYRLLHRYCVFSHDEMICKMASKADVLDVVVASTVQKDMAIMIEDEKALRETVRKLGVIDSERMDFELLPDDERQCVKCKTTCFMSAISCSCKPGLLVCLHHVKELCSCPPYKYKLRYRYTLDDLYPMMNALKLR
Chain of JMJD2C (Q9H3R0 2-372): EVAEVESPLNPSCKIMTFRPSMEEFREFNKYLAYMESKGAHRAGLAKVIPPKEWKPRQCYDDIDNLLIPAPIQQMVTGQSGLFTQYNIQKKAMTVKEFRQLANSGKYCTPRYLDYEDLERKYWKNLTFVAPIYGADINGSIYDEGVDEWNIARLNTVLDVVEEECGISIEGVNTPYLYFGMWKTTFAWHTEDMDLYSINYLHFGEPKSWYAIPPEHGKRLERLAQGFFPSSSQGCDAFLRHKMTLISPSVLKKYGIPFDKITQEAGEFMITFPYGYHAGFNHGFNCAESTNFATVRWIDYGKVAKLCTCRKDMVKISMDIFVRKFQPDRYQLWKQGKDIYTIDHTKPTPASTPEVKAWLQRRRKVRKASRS

| SMILES | pIC50 (JMJD2C) | pIC50 (FBXL10) | pIC50 (Jarid1A) | pIC50 (Jarid1B) | pIC50 (JMJD2A) |
| --- | --- | --- | --- | --- | --- |
| O=C(O)c1ccnc(-n2nc(C3CC3)cc2O)c1 [Example 2, 2-(3-cyclopropyl-5-hydroxy-1H-pyrazol-1-yl)isonicotinic acid] | 6.00 to 7.00 | > 7.00 | > 7.00 | > 7.00 | 6.00 to 7.00 |
| Cc1ccc(-c2ccnn2-c2cc(C(=O)O)ccn2)cc1 [Example 12, 2-(5-p-tolyl-1H-pyrazol-1-yl)isonicotinic acid] | 6.00 to 7.00 | – | 6.00 to 7.00 | 6.00 to 7.00 | 6.00 to 7.00 |
| O=C(O)c1ccnc(-n2nccc2-c2ccc(F)cc2F)c1 [Example 14, 2-(5-(2,4-difluorophenyl)-1H-pyrazol-1-yl)isonicotinic acid] | 6.00 to 7.00 | – | 6.00 to 7.00 | 6.00 to 7.00 | 6.00 to 7.00 |
| O=C(O)c1ccnc(-n2nccc2-c2cccc(O)c2)c1 [Example 17, 2-(5-(3-hydroxyphenyl)-1H-pyrazol-1-yl)isonicotinic acid] | 6.00 to 7.00 | – | 6.00 to 7.00 | 6.00 to 7.00 | 6.00 to 7.00 |
| O=C(O)c1ccnc(-n2nccc2-c2ccc(F)cc2)c1 [Example 27, 2-(5-(4-fluorophenyl)-1H-pyrazol-1-yl)isonicotinic acid] | 6.00 to 7.00 | < 5.00 | 6.00 to 7.00 | 6.00 to 7.00 | – |
| O=C(O)c1ccnc(-n2nccc2Cc2ccccc2)c1 [Example 32, 2-(5-benzyl-1H-pyrazol-1-yl)isonicotinic acid] | < 5.00 | 5.00 to 6.00 | < 5.00 | < 5.00 | – |
| O=C(O)c1ccnc(-n2ccc(Cc3ccccc3)n2)c1 [Example 33, 2-(3-benzyl-1H-pyrazol-1-yl)isonicotinic acid] | 5.00 to 6.00 | 5.00 to 6.00 | 5.00 to 6.00 | 5.00 to 6.00 | – |
| O=C(O)c1ccnc(-n2ccc(CCc3ccccc3)n2)c1 [Example 35, 2-(3-phenethyl-1H-pyrazol-1-yl)isonicotinic acid] | 6.00 to 7.00 | – | 6.00 to 7.00 | 6.00 to 7.00 | 6.00 to 7.00 |
| O=C(O)c1ccnc(-n2nccc2OCc2ccccc2)c1 [Example 39, 2-(5-(benzyloxy)-1H-pyrazol-1-yl)isonicotinic acid] | > 7.00 | – | > 7.00 | > 7.00 | > 7.00 |
| O=C(O)c1ccnc(-n2nccc2OCc2ccc(F)cc2)c1 [Example 40, 2-{5-[(4-fluorobenzyl)oxy]-1H-pyrazol-1-yl}pyridine-4-carboxylic acid] | > 7.00 | < 5.00 | > 7.00 | > 7.00 | – |
| O=C(O)c1ccnc(-n2nccc2OCc2ccc3cn[nH]c3c2)c1 [Example 49, 2-[5-(1H-indazol-6-ylmethoxy)-1H-pyrazol-1-yl]pyridine-4-carboxylic acid] | 5.00 to 6.00 | 6.00 to 7.00 | 6.00 to 7.00 | 6.00 to 7.00 | – |
| Cc1ccc(COc2ccnn2-c2cc(C(=O)O)ccn2)cc1 [Example 55, 2-{5-[(4-methylbenzyl)oxy]-1H-pyrazol-1-yl}pyridine-4-carboxylic acid] | > 7.00 | 5.00 to 6.00 | > 7.00 | > 7.00 | – |
| CCc1ccc(COc2ccnn2-c2cc(C(=O)O)ccn2)cc1 [Example 56, 2-{5-[(4-ethylbenzyl)oxy]-1H-pyrazol-1-yl}pyridine-4-carboxylic acid] | 6.00 to 7.00 | 5.00 to 6.00 | > 7.00 | > 7.00 | – |
| Cc1ccc(COc2ccnn2-c2cc(C(=O)O)ccn2)cc1Cl [Example 92, 2-[5-[(3-chloro-4-methylphenyl)methoxy]pyrazol-1-yl]pyridine-4-carboxylic acid] | > 7.00 | 5.00 to 6.00 | > 7.00 | > 7.00 | – |
| N#Cc1ccc(COc2ccnn2-c2cc(C(=O)O)ccn2)cc1 [Example 99, 2-[5-[(4-cyanophenyl)methoxy]pyrazol-1-yl]pyridine-4-carboxylic acid] | > 7.00 | 5.00 to 6.00 | > 7.00 | > 7.00 | – |
| O=C(O)c1ccnc(-n2nccc2OCc2ccc(Cl)cc2OCc2ccccc2)c1 [Example 105, 2-[5-[(4-chloro-2-phenylmethoxyphenyl)methoxy]pyrazol-1-yl]pyridine-4-carboxylic acid] | 6.00 to 7.00 | 6.00 to 7.00 | > 7.00 | > 7.00 | – |
| O=C(O)c1ccnc(-n2nccc2OCc2ccc(Cl)cc2OCC2CC2)c1 [Example 106, 2-[5-[[4-chloro-2-(cyclopropylmethoxy)phenyl]methoxy]pyrazol-1-yl]pyridine-4-carboxylic acid] | 6.00 to 7.00 | 5.00 to 6.00 | > 7.00 | > 7.00 | – |
| O=C(O)c1ccnc(-n2nccc2OCc2ccc(Cl)cc2OCC(F)(F)F)c1 [Example 108, 2-[5-[[4-chloro-2-(2,2,2-trifluoroethoxy)phenyl]methoxy]pyrazol-1-yl]pyridine-4-carboxylic acid] | 6.00 to 7.00 | 5.00 to 6.00 | > 7.00 | > 7.00 | – |
| O=C(O)c1ccnc(-n2nccc2OCc2ccc(Cl)c(OCC3CC3)c2)c1 [Example 140, 2-[5-[[4-chloro-3-(cyclopropylmethoxy)phenyl]methoxy]pyrazol-1-yl]pyridine-4-carboxylic acid] | – | 5.00 to 6.00 | 6.00 to 7.00 | 6.00 to 7.00 | 6.00 to 7.00 |
| CN(CCc1cnn(-c2cc(C(=O)O)ccn2)c1)Cc1ccc(F)cc1 [Example 156, 2-[4-[2-[(4-fluorophenyl)methyl-methylamino]ethyl]pyrazol-1-yl]pyridine-4-carboxylic acid] | > 7.00 | < 5.00 | > 7.00 | > 7.00 | – |
| CC(c1ccccc1)c1cc(O)n(-c2cc(C(=O)O)ccn2)n1 (centres unmarked) [Example 162, 2-[5-hydroxy-3-(1-phenylethyl)pyrazol-1-yl]pyridine-4-carboxylic acid] | 5.00 to 6.00 | > 7.00 | – | 5.00 to 6.00 | < 5.00 |
| O=C(O)c1ccnc(-n2nc(Cc3ccccc3Cl)cc2O)c1 [Example 163, 2-[3-[(2-chlorophenyl)methyl]-5-hydroxypyrazol-1-yl]pyridine-4-carboxylic acid] | 5.00 to 6.00 | > 7.00 | – | 5.00 to 6.00 | < 5.00 |
| O=C(O)c1ccnc(-n2nc(Cc3cccc(Cl)c3)cc2O)c1 [Example 164, 2-[3-[(3-chlorophenyl)methyl]-5-hydroxypyrazol-1-yl]pyridine-4-carboxylic acid] | 5.00 to 6.00 | > 7.00 | – | 5.00 to 6.00 | < 5.00 |
| O=C(O)c1ccnc(-n2nc(Cc3ccc(Cl)cc3)cc2O)c1 [Example 165, 2-[3-[(4-chlorophenyl)methyl]-5-hydroxypyrazol-1-yl]pyridine-4-carboxylic acid] | 5.00 to 6.00 | > 7.00 | – | 6.00 to 7.00 | < 5.00 |
| Oc1cc(Cc2ccc(Cl)cc2)nn1-c1cc(-c2nnn[nH]2)ccn1 [Example 169, 5-[(4-chlorophenyl)methyl]-2-[4-(1H-tetrazol-5-yl)pyridin-2-yl]pyrazol-3-ol] | 5.00 to 6.00 | > 7.00 | – | 5.00 to 6.00 | < 5.00 |

Source: US9604961B2, “Histone demethylase inhibitors” (Celgene Quanticel Research, Inc., priority 2012, dated 2017)
